Measurements taken from ChEMBL document CHEMBL4346715, “Antibacterial activity study of 1,2,4-triazole derivatives” (Eur J Med Chem, 2019).
In brackets after ≈: the same amount, converted by molar mass.

Key:
[1] = test system: Escherichia coli; experiment: Antibacterial activity against Escherichia coli incubated for 18 hrs post 30 mins pre-diffusion by disk diffusion method; type: functional
[2] = test system: Staphylococcus aureus; experiment: Antibacterial activity against Staphylococcus aureus incubated for 18 hrs post 30 mins pre-diffusion by disk diffusion method; type: functional
[3] = test system: Pseudomonas aeruginosa; experiment: Antibacterial activity against Pseudomonas aeruginosa ATCC 27853 after 24 hrs by broth microdilution method; type: functional; settings: ATCC 27853, 24 h
[4] = test system: Staphylococcus aureus; experiment: Antibacterial activity against Staphylococcus aureus ATCC 49444 after 24 hrs by broth microdilution method; type: functional; settings: ATCC 49444, 24 h
[5] = test system: Escherichia coli; experiment: Antibacterial activity against Escherichia coli after 24 hrs by broth microdilution method; type: functional
[6] = test system: Salmonella typhimurium; experiment: Antibacterial activity against Salmonella typhimurium ATCC 14028 after 24 hrs by broth microdilution method; type: functional, Salmonella enterica subsp. enterica serovar Typhimurium; settings: Salmonella enterica, ATCC 14028, 24 h
[7] = test system: Listeria monocytogenes; experiment: Antibacterial activity against Listeria monocytogenes ATCC 35152 after 24 hrs by broth microdilution method; type: functional; settings: ATCC 35152, 24 h
[8] = test system: Clostridium tetani; experiment: Antibacterial activity against Clostridium tetani; type: functional
[9] = test system: Bacillus subtilis; experiment: Antibacterial activity against Bacillus subtilis; type: functional
[10] = test system: Streptococcus pneumoniae; experiment: Antibacterial activity against Streptococcus pneumoniae; type: functional
[11] = test system: Escherichia coli; experiment: Antibacterial activity against Escherichia coli; type: functional
[12] = test system: Staphylococcus aureus; experiment: Antibacterial activity against Staphylococcus aureus; type: functional
[13] = test system: Aspergillus niger; experiment: Antifungal activity against Aspergillus niger; type: functional
[14] = test system: Pseudomonas aeruginosa; experiment: Antibacterial activity against Pseudomonas aeruginosa; type: functional
[15] = test system: Candida albicans; experiment: Antifungal activity against Candida albicans; type: functional

Compound: FC(F)(F)c1cc(-c2nnc(Sc3cc(Cl)ncn3)[nH]2)cc(C(F)(F)F)c1
- MIC [1]: 1.6 to 250 µg/mL (≈ 3.76 to 587 µM)
- MIC [2]: 1.6 to 250 µg/mL (≈ 3.76 to 587 µM)

Compound: CSc1nc(Cl)cc(Sc2nnc(-c3cc(F)cc(F)c3)[nH]2)n1
- MIC [1]: 1.6 to 250 µg/mL (≈ 4.3 to 672 µM)
- MIC [2]: 1.6 to 250 µg/mL (≈ 4.3 to 672 µM)

Compound: Cc1nc(-c2ccccc2)sc1-c1nnc(S)n1/N=C/c1cccc(Cl)c1Cl
- MIC [3]: 1.95 to 62.5 µg/mL (≈ 4.37 to 140 µM)
- MIC [4]: 1.95 to 62.5 µg/mL (≈ 4.37 to 140 µM)
- MIC [5]: 1.95 to 62.5 µg/mL (≈ 4.37 to 140 µM)
- MIC [6]: 1.95 to 62.5 µg/mL (≈ 4.37 to 140 µM)
- MIC [7]: 1.95 to 62.5 µg/mL (≈ 4.37 to 140 µM)

Compound: FC(F)(F)c1cc(-c2nnc(Sc3cc(Cl)nc(Oc4ccccc4)n3)[nH]2)cc(C(F)(F)F)c1
- MIC [1]: 1.6 to 250 µg/mL (≈ 3.09 to 483 µM)
- MIC [2]: 1.6 to 250 µg/mL (≈ 3.09 to 483 µM)

Compound: Cc1nn(-c2ccccc2)c(-n2cncn2)c1-c1cc(-c2ccc(-c3cc[nH]c3)cc2)nc2nc3ccccc3n12
- MIC [8]: 62.5 to 250 µg/mL (≈ 117 to 469 µM)
- MIC [9]: 62.5 to 250 µg/mL (≈ 117 to 469 µM)
- MIC [10]: 62.5 to 250 µg/mL (≈ 117 to 469 µM)
- MIC [11]: 62.5 to 250 µg/mL (≈ 117 to 469 µM)
- MIC [12]: 62.5 to 250 µg/mL (≈ 117 to 469 µM)

Compound: COc1cc(/C=N/n2c(S)nnc2-c2ccncc2)cc(OC)c1OC
- MIC [9]: 10.2 to 162 µg/mL (≈ 27.5 to 438 µM)
- MIC [13]: 10.2 to 162 µg/mL (≈ 27.5 to 438 µM)
- MIC [14]: 10.2 to 162 µg/mL (≈ 27.5 to 438 µM)
- MIC [11]: 10.2 to 162 µg/mL (≈ 27.5 to 438 µM)
- MIC [15]: 10.2 to 162 µg/mL (≈ 27.5 to 438 µM)
- MIC [12]: 10.2 to 162 µg/mL (≈ 27.5 to 438 µM)

Compound: Cc1nc(-c2ccccc2)sc1-c1nnc(S)n1/N=C/c1cccc(O)c1
- MIC [3]: 1.95 to 62.5 µg/mL (≈ 4.96 to 159 µM)
- MIC [4]: 1.95 to 62.5 µg/mL (≈ 4.96 to 159 µM)
- MIC [5]: 1.95 to 62.5 µg/mL (≈ 4.96 to 159 µM)
- MIC [6]: 1.95 to 62.5 µg/mL (≈ 4.96 to 159 µM)
- MIC [7]: 1.95 to 62.5 µg/mL (≈ 4.96 to 159 µM)

Compound: Fc1ccc(/C=N/n2c(-c3ccncc3)n[nH]c2=S)cc1
- MIC [9]: 10.2 to 162 µg/mL (≈ 34.1 to 543 µM)
- MIC [13]: 10.2 to 162 µg/mL (≈ 34.1 to 543 µM)
- MIC [14]: 12.5 µg/mL (≈ 41.8 µM)
- MIC [11]: 10.2 to 162 µg/mL (≈ 34.1 to 543 µM)
- MIC [15]: 10.2 to 162 µg/mL (≈ 34.1 to 543 µM)
- MIC [12]: 10.2 µg/mL (≈ 34.1 µM)

Compound: Cc1nc(-c2ccccc2)sc1-c1nnc(S)n1/N=C/c1ccc(Br)cc1
- MIC [3]: 1.95 to 62.5 µg/mL (≈ 4.27 to 137 µM)
- MIC [4]: 1.95 to 62.5 µg/mL (≈ 4.27 to 137 µM)
- MIC [5]: 1.95 to 62.5 µg/mL (≈ 4.27 to 137 µM)
- MIC [6]: 1.95 to 62.5 µg/mL (≈ 4.27 to 137 µM)
- MIC [7]: 1.95 to 62.5 µg/mL (≈ 4.27 to 137 µM)

Compound: CSc1nccc(Sc2nnc(-c3cc(C)cc(C)c3)[nH]2)n1
- MIC [1]: 1.6 to 250 µg/mL (≈ 4.86 to 759 µM)
- MIC [2]: 1.6 to 250 µg/mL (≈ 4.86 to 759 µM)

Compound: Fc1cccc(-c2nnc(Sc3cc(Cl)nc(Sc4ccccc4)n3)[nH]2)c1
- MIC [1]: 1.6 to 250 µg/mL (≈ 3.85 to 601 µM)
- MIC [2]: 1.6 to 250 µg/mL (≈ 3.85 to 601 µM)

Compound: Cc1nn(-c2ccccc2)c(-n2cncn2)c1-c1cc(-c2ccccc2)nc2nc3ccccc3n12
- MIC [8]: 62.5 to 250 µg/mL (≈ 133 to 534 µM)
- MIC [9]: 62.5 to 250 µg/mL (≈ 133 to 534 µM)
- MIC [10]: 62.5 to 250 µg/mL (≈ 133 to 534 µM)
- MIC [11]: 62.5 to 250 µg/mL (≈ 133 to 534 µM)
- MIC [12]: 62.5 to 250 µg/mL (≈ 133 to 534 µM)

Compound: COc1cc(OC)cc(-c2nnc(Sc3cc(Cl)nc(SC)n3)[nH]2)c1
- MIC [1]: 1.6 to 250 µg/mL (≈ 4.04 to 631 µM)
- MIC [2]: 1.6 to 250 µg/mL (≈ 4.04 to 631 µM)

Compound: Cc1nc(-c2ccccc2)sc1-c1nnc(S)n1/N=C/c1ccccc1O
- MIC [3]: 1.95 to 62.5 µg/mL (≈ 4.96 to 159 µM)
- MIC [4]: 1.95 to 62.5 µg/mL (≈ 4.96 to 159 µM)
- MIC [5]: 1.95 to 62.5 µg/mL (≈ 4.96 to 159 µM)
- MIC [6]: 1.95 to 62.5 µg/mL (≈ 4.96 to 159 µM)
- MIC [7]: 1.95 to 62.5 µg/mL (≈ 4.96 to 159 µM)

Compound: Sc1nnc(-c2ccncc2)n1/N=C/c1ccc(Cl)cc1
- MIC [9]: 10.2 to 162 µg/mL (≈ 32.3 to 515 µM)
- MIC [13]: 10.2 to 162 µg/mL (≈ 32.3 to 515 µM)
- MIC [14]: 10.2 to 162 µg/mL (≈ 32.3 to 515 µM)
- MIC [11]: 10.2 to 162 µg/mL (≈ 32.3 to 515 µM)
- MIC [15]: 10.2 to 162 µg/mL (≈ 32.3 to 515 µM)
- MIC [12]: 10.2 to 162 µg/mL (≈ 32.3 to 515 µM)

Compound: Cc1cc(C)cc(-c2nnc(Sc3cc(Cl)nc(Sc4ccccc4)n3)[nH]2)c1
- MIC [1]: 1.6 to 250 µg/mL (≈ 3.76 to 587 µM)
- MIC [2]: 1.6 to 250 µg/mL (≈ 3.76 to 587 µM)

Compound: C/C=N/n1c(S)nnc1-c1ccncc1
- MIC [9]: 10.2 to 162 µg/mL (≈ 46.5 to 741 µM)
- MIC [13]: 10.2 to 162 µg/mL (≈ 46.5 to 741 µM)
- MIC [14]: 10.2 to 162 µg/mL (≈ 46.5 to 741 µM)
- MIC [11]: 10.2 to 162 µg/mL (≈ 46.5 to 741 µM)
- MIC [15]: 10.2 to 162 µg/mL (≈ 46.5 to 741 µM)
- MIC [12]: 10.2 to 162 µg/mL (≈ 46.5 to 741 µM)

Compound: CSc1nc(Cl)cc(Sc2nnc(-c3cc(C)cc(C)c3)[nH]2)n1
- MIC [1]: 1.6 to 250 µg/mL (≈ 4.4 to 687 µM)
- MIC [2]: 1.6 to 250 µg/mL (≈ 4.4 to 687 µM)

Compound: COc1ccc(-c2cc(-c3c(C)nn(-c4ccccc4)c3-n3cncn3)n3c(n2)nc2ccccc23)cc1
- MIC [8]: 62.5 to 250 µg/mL (≈ 125 to 501 µM)
- MIC [9]: 62.5 to 250 µg/mL (≈ 125 to 501 µM)
- MIC [10]: 62.5 to 250 µg/mL (≈ 125 to 501 µM)
- MIC [11]: 62.5 to 250 µg/mL (≈ 125 to 501 µM)
- MIC [12]: 62.5 to 250 µg/mL (≈ 125 to 501 µM)

Compound: Cc1nc(-c2ccccc2)sc1-c1nnc(S)n1/N=C/c1cccc(Cl)c1
- MIC [3]: 1.95 to 62.5 µg/mL (≈ 4.73 to 152 µM)
- MIC [4]: 1.95 to 62.5 µg/mL (≈ 4.73 to 152 µM)
- MIC [5]: 1.95 to 62.5 µg/mL (≈ 4.73 to 152 µM)
- MIC [6]: 1.95 to 62.5 µg/mL (≈ 4.73 to 152 µM)
- MIC [7]: 1.95 to 62.5 µg/mL (≈ 4.73 to 152 µM)

Compound: Cc1nc(-c2ccccc2)sc1-c1nnc(S)n1/N=C/c1c(Cl)cccc1Cl
- MIC [3]: 1.95 to 62.5 µg/mL (≈ 4.37 to 140 µM)
- MIC [4]: 1.95 to 62.5 µg/mL (≈ 4.37 to 140 µM)
- MIC [5]: 1.95 to 62.5 µg/mL (≈ 4.37 to 140 µM)
- MIC [6]: 1.95 to 62.5 µg/mL (≈ 4.37 to 140 µM)
- MIC [7]: 1.95 to 62.5 µg/mL (≈ 4.37 to 140 µM)

Compound: CSc1nc(Cl)cc(Sc2nnc(-c3cccc(F)c3)[nH]2)n1
- MIC [1]: 1.6 to 250 µg/mL (≈ 4.52 to 707 µM)
- MIC [2]: 1.6 to 250 µg/mL (≈ 4.52 to 707 µM)

Compound: CSc1nc(Cl)cc(Sc2nnc(-c3cccc(C(F)(F)F)c3)[nH]2)n1
- MIC [1]: 1.6 to 250 µg/mL (≈ 3.96 to 619 µM)
- MIC [2]: 1.6 to 250 µg/mL (≈ 3.96 to 619 µM)

Compound: Fc1cc(F)cc(-c2nnc(Sc3cc(Cl)nc(Sc4ccccc4)n3)[nH]2)c1
- MIC [1]: 1.6 to 250 µg/mL (≈ 3.69 to 576 µM)
- MIC [2]: 1.6 to 250 µg/mL (≈ 3.69 to 576 µM)

Compound: Cc1ccc(-c2cc(-c3c(C)nn(-c4ccccc4)c3-n3cncn3)n3c(n2)nc2ccccc23)cc1
- MIC [8]: 62.5 to 250 µg/mL (≈ 130 to 518 µM)
- MIC [9]: 62.5 to 250 µg/mL (≈ 130 to 518 µM)
- MIC [10]: 62.5 to 250 µg/mL (≈ 130 to 518 µM)
- MIC [11]: 62.5 to 250 µg/mL (≈ 130 to 518 µM)
- MIC [12]: 62.5 to 250 µg/mL (≈ 130 to 518 µM)

Compound: Cc1nc(-c2ccccc2)sc1-c1nnc(S)n1/N=C/c1ccc(O)cc1
- MIC [3]: 1.95 to 62.5 µg/mL (≈ 4.96 to 159 µM)
- MIC [4]: 1.95 to 62.5 µg/mL (≈ 4.96 to 159 µM)
- MIC [5]: 1.95 to 62.5 µg/mL (≈ 4.96 to 159 µM)
- MIC [6]: 1.95 to 62.5 µg/mL (≈ 4.96 to 159 µM)
- MIC [7]: 1.95 to 62.5 µg/mL (≈ 4.96 to 159 µM)
